Assays:
Assay in all cases: Test A preemergence
Type in all cases: in vivo
[1] = test system: giant foxtail (Setaria faberii); details: Setaria faberi, pre-emergence, 240 h, read-out: Plant response rating, Foxtail, Giant; for pest or weed control at 125 g/ha: 125 g ai/ha, visual rating after approx. 10 d, 0 to 100 scale where 0 is no effect and 100 is complete control; for pest or weed control at 125 g/ha / pest or weed control at 500 g/ha: preemergence; for pest or weed control at 500 g/ha: 500 g ai/ha, 0 to 100 scale, 0 = no effect, 100 = complete control
In short: (§1)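 Preemergence soil spray on seeded pots or post-emergence spray on 1–2 leaf plants, in loam–sand blend. Greenhouse ~10 d. Visual rating 0–100 against untreated plants.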

[2] = test system: ryegrass, Italian (Italian ryegrass, Lolium multiflorum); details: Lolium multiflorum, pre-emergence, 240 h, read-out: Plant response rating, Ryegrass, Italian; for pest or weed control at 125 g/ha: 125 g ai/ha, visual rating after approx. 10 d, 0 to 100 scale where 0 is no effect and 100 is complete control; for pest or weed control at 125 g/ha / pest or weed control at 500 g/ha: preemergence; for pest or weed control at 500 g/ha: 500 g ai/ha, 0 to 100 scale, 0 = no effect, 100 = complete control
In short: as §1

[3] = test system: ragweed (common ragweed, Ambrosia elatior); details: Ambrosia artemisiifolia, pre-emergence, 240 h, read-out: Plant response rating, Ragweed; for pest or weed control at 125 g/ha: 125 g ai/ha, visual rating after approx. 10 d, 0 to 100 scale where 0 is no effect and 100 is complete control; for pest or weed control at 125 g/ha / pest or weed control at 500 g/ha: preemergence; for pest or weed control at 500 g/ha: 500 g ai/ha, 0 to 100 scale, 0 = no effect, 100 = complete control
In short: as §1

[4] = test system: pigweed (Amaranthus retroflexus); details: Amaranthus retroflexus, pre-emergence, 240 h, read-out: Plant response rating, Pigweed; for pest or weed control at 125 g/ha: 125 g ai/ha, visual rating after approx. 10 d, 0 to 100 scale where 0 is no effect and 100 is complete control; for pest or weed control at 125 g/ha / pest or weed control at 500 g/ha: preemergence; for pest or weed control at 500 g/ha: 500 g ai/ha, 0 to 100 scale, 0 = no effect, 100 = complete control
Kochia (Kochia scoparia) = details: Bassia scoparia, pre-emergence, 240 h, read-out: Plant response rating, Kochia; for pest or weed control at 125 g/ha: 125 g ai/ha, visual rating after approx. 10 d, 0 to 100 scale where 0 is no effect and 100 is complete control; for pest or weed control at 125 g/ha / pest or weed control at 500 g/ha: preemergence; for pest or weed control at 500 g/ha: 500 g ai/ha, 0 to 100 scale, 0 = no effect, 100 = complete control
In short: as §1

[5] = test system: barnyardgrass (Echinochloa crus-galli); details: Echinochloa crus-galli, pre-emergence, 240 h, read-out: Plant response rating, Barnyardgrass; for pest or weed control at 125 g/ha: 125 g ai/ha, visual rating after approx. 10 d, 0 to 100 scale where 0 is no effect and 100 is complete control; for pest or weed control at 125 g/ha / pest or weed control at 500 g/ha: preemergence; for pest or weed control at 500 g/ha: 500 g ai/ha, 0 to 100 scale, 0 = no effect, 100 = complete control
In short: as §1

[6] = Preemergence, 31 g ai/ha, 0 to 100 scale (0 no effect, 100 complete control)

CSc1ccccc1NC(=O)[C@H]1C(=O)N(C)C[C@@H]1c1ccc(C)c(C)c1 [Compound 733]
pest or weed control at 125 g/ha [1]: 90%
pest or weed control at 500 g/ha [1]: 90%
pest or weed control at 125 g/ha [2]: 40%
pest or weed control at 500 g/ha [2]: 60%
pest or weed control at 125 g/ha [3]: 70%
pest or weed control at 500 g/ha [3]: 80%
pest or weed control at 125 g/ha [4]: 20%
pest or weed control at 500 g/ha [4]: 60%
pest or weed control at 125 g/ha (Kochia (Kochia scoparia)): 20%
pest or weed control at 500 g/ha (Kochia (Kochia scoparia)): 80%
pest or weed control at 125 g/ha [5]: 90%
pest or weed control at 500 g/ha [5]: 100%

CSc1ccccc1NC(=O)[C@H]1C(=O)N(C)C[C@@H]1c1cc(F)cc(F)c1 [Compound 738]
pest or weed control at 125 g/ha [1]: 90%
pest or weed control at 500 g/ha [1]: 100%
pest or weed control at 125 g/ha [2]: 0%
pest or weed control at 500 g/ha [2]: 20%
pest or weed control at 125 g/ha [3]: 0%
pest or weed control at 500 g/ha [3]: 70%
pest or weed control at 125 g/ha [4]: 0%
pest or weed control at 500 g/ha [4]: 50%
pest or weed control at 125 g/ha (Kochia (Kochia scoparia)): 0%
pest or weed control at 500 g/ha (Kochia (Kochia scoparia)): 70%
pest or weed control at 125 g/ha [5]: 90%
pest or weed control at 500 g/ha [5]: 100%

CN1C[C@H](c2cc(F)cc(F)c2)[C@@H](C(=O)Nc2ccccc2S(C)(=O)=O)C1=O [Compound 739]
pest or weed control at 125 g/ha [1]: 90%
pest or weed control at 500 g/ha [1]: 100%
pest or weed control at 125 g/ha [2]: 0%
pest or weed control at 500 g/ha [2]: 30%
pest or weed control at 125 g/ha [3]: 50%
pest or weed control at 500 g/ha [3]: 80%
pest or weed control at 125 g/ha [4]: 0%
pest or weed control at 500 g/ha [4]: 30%
pest or weed control at 125 g/ha (Kochia (Kochia scoparia)): 30%
pest or weed control at 500 g/ha (Kochia (Kochia scoparia)): 80%
pest or weed control at 125 g/ha [5]: 90%
pest or weed control at 500 g/ha [5]: 100%

CN1C[C@H](c2ccc3c(c2)CCC3)[C@@H](C(=O)Nc2ccccc2F)C1=O [Compound 742]
pest or weed control at 125 g/ha [1]: 90%
pest or weed control at 500 g/ha [1]: 90%
pest or weed control at 125 g/ha [2]: 50%
pest or weed control at 500 g/ha [2]: 90%
pest or weed control at 125 g/ha [3]: 20%
pest or weed control at 500 g/ha [3]: 80%
pest or weed control at 125 g/ha [4]: 20%
pest or weed control at 500 g/ha [4]: 50%
pest or weed control at 125 g/ha (Kochia (Kochia scoparia)): 60%
pest or weed control at 500 g/ha (Kochia (Kochia scoparia)): 90%
pest or weed control at 125 g/ha [5]: 90%
pest or weed control at 500 g/ha [5]: 90%

CN1C[C@H](c2ccc3c(c2)CCC3)[C@@H](C(=O)Nc2cccc(F)c2F)C1=O [Compound 743]
pest or weed control at 125 g/ha [1]: 90%
pest or weed control at 500 g/ha [1]: 90%
pest or weed control at 125 g/ha [2]: 90%
pest or weed control at 500 g/ha [2]: 90%
pest or weed control at 125 g/ha [3]: 0%
pest or weed control at 500 g/ha [3]: 40%
pest or weed control at 125 g/ha [4]: 0%
pest or weed control at 500 g/ha [4]: 20%
pest or weed control at 125 g/ha (Kochia (Kochia scoparia)): 60%
pest or weed control at 500 g/ha (Kochia (Kochia scoparia)): 80%
pest or weed control at 125 g/ha [5]: 90%
pest or weed control at 500 g/ha [5]: 90%

CN1C[C@H](c2ccc3c(c2)CCC3)[C@@H](C(=O)Nc2ccccc2S(C)(=O)=O)C1=O [Compound 744]
pest or weed control at 125 g/ha [1]: 90%
pest or weed control at 500 g/ha [1]: 90%
pest or weed control at 125 g/ha [2]: 0%
pest or weed control at 500 g/ha [2]: 80%
pest or weed control at 125 g/ha [3]: 0%
pest or weed control at 500 g/ha [3]: 50%
pest or weed control at 125 g/ha [4]: 20%
pest or weed control at 500 g/ha [4]: 50%
pest or weed control at 125 g/ha (Kochia (Kochia scoparia)): 60%
pest or weed control at 500 g/ha (Kochia (Kochia scoparia)): 90%
pest or weed control at 125 g/ha [5]: 20%
pest or weed control at 500 g/ha [5]: 90%

CN1C[C@H](c2ccc(C(F)(F)F)cc2)[C@@H](C(=O)Nc2ccc(F)c(F)c2F)C1=O [Compound 745]
pest or weed control at 125 g/ha [1]: 90%
pest or weed control at 500 g/ha [1]: 90%
pest or weed control at 125 g/ha [2]: 70%
pest or weed control at 500 g/ha [2]: 90%
pest or weed control at 125 g/ha [3]: 80%
pest or weed control at 500 g/ha [3]: 80%
pest or weed control at 125 g/ha [4]: 80%
pest or weed control at 500 g/ha [4]: 90%
pest or weed control at 125 g/ha (Kochia (Kochia scoparia)): 90%
pest or weed control at 500 g/ha (Kochia (Kochia scoparia)): 90%
pest or weed control at 125 g/ha [5]: 90%
pest or weed control at 500 g/ha [5]: 90%

CS(=O)(=O)c1ccccc1NC(=O)[C@H]1C(=O)NC[C@@H]1c1cccc2c1OC(F)(F)O2 [Compound 753]
pest or weed control at 125 g/ha [1]: 70%
pest or weed control at 500 g/ha [1]: 90%
pest or weed control at 125 g/ha [2]: 0%
pest or weed control at 500 g/ha [2]: 20%
pest or weed control at 125 g/ha [3]: 0%
pest or weed control at 500 g/ha [3]: 0%
pest or weed control at 125 g/ha [4]: 0%
pest or weed control at 500 g/ha [4]: 0%
pest or weed control at 125 g/ha (Kochia (Kochia scoparia)): 20%
pest or weed control at 500 g/ha (Kochia (Kochia scoparia)): 20%
pest or weed control at 125 g/ha [5]: 70%
pest or weed control at 500 g/ha [5]: 100%

Cc1ccc([C@H]2CNC(=S)[C@@H]2C(=O)Nc2cccc(F)c2C)cc1C [Compound 764]
pest or weed control at 125 g/ha [1]: 70%
pest or weed control at 500 g/ha [1]: 80%
pest or weed control at 125 g/ha [2]: 0%
pest or weed control at 125 g/ha [3]: 0%
pest or weed control at 500 g/ha [3]: 0%
pest or weed control at 125 g/ha [4]: 0%
pest or weed control at 500 g/ha [4]: 0%
pest or weed control at 125 g/ha (Kochia (Kochia scoparia)): 0%
pest or weed control at 500 g/ha (Kochia (Kochia scoparia)): 0%
pest or weed control at 125 g/ha [5]: 100%
pest or weed control at 500 g/ha [5]: 100%

CSc1ccccc1NC(=O)[C@H]1C(=S)NC[C@@H]1c1ccc(C)c(C)c1 [Compound 766]
pest or weed control at 125 g/ha [1]: 0%
pest or weed control at 500 g/ha [1]: 40%
pest or weed control at 125 g/ha [2]: 0%
pest or weed control at 125 g/ha [3]: 0%
pest or weed control at 500 g/ha [3]: 0%
pest or weed control at 125 g/ha [4]: 0%
pest or weed control at 500 g/ha [4]: 0%
pest or weed control at 125 g/ha (Kochia (Kochia scoparia)): 0%
pest or weed control at 500 g/ha (Kochia (Kochia scoparia)): 0%
pest or weed control at 125 g/ha [5]: 70%
pest or weed control at 500 g/ha [5]: 90%

COc1cc([C@H]2CN(C)C(=O)[C@@H]2C(=O)Nc2ccccc2F)ccc1C(F)(F)F [Compound 768]
pest or weed control at 125 g/ha [1]: 90%
pest or weed control at 500 g/ha [1]: 90%
pest or weed control at 125 g/ha [2]: 0%
pest or weed control at 125 g/ha [3]: 0%
pest or weed control at 500 g/ha [3]: 0%
pest or weed control at 125 g/ha [4]: 0%
pest or weed control at 500 g/ha [4]: 20%
pest or weed control at 125 g/ha (Kochia (Kochia scoparia)): 60%
pest or weed control at 500 g/ha (Kochia (Kochia scoparia)): 70%
pest or weed control at 125 g/ha [5]: 90%
pest or weed control at 500 g/ha [5]: 90%

COc1cc([C@H]2CN(C)C(=O)[C@@H]2C(=O)Nc2cccc(F)c2F)ccc1C(F)(F)F [Compound 770]
pest or weed control at 125 g/ha [1]: 90%
pest or weed control at 31 g/ha [1, 6]: 90%
pest or weed control at 125 g/ha [2]: 0%
pest or weed control at 31 g/ha [2, 6]: 0%
pest or weed control at 125 g/ha [3]: 0%
pest or weed control at 31 g/ha [3, 6]: 0%
pest or weed control at 125 g/ha [4]: 90%
pest or weed control at 31 g/ha [4, 6]: 40%
pest or weed control at 125 g/ha (Kochia (Kochia scoparia)): 0%
pest or weed control at 31 g/ha (Kochia (Kochia scoparia); [6]): 0%
pest or weed control at 125 g/ha [5]: 90%
pest or weed control at 31 g/ha [5, 6]: 70%

— patent publication US12077503B2, “Substituted cyclic amides and their use as herbicides” (FMC CORPORATION, priority 2015, dated 2024)
